# Reference: the Deep4Chem optical property database
# Where “and” joins values, the source holds several entries; their conditions need not be identical. Equal entries are not always repeated.
# Test: solvent given as SMILES
structure (smiles),measurement,setting,value
N#Cc1c2nc3ccccn3c2nc2c1nc1ccccn12,emission maximum,in C1CCCCC1,460 nm
same,emission maximum,in C1COCCO1,470 nm
same,emission maximum,in CC#N,495 nm
same,emission maximum,in CN(C)C=O,515 nm
same,emission maximum,in ClC(Cl)Cl,475 nm
CCc1c(C)c2n(c1C)[B-](F)(F)[N+]1=C(c3ccc[nH]3)c3ccccc3C1=C2,emission maximum,in C1CCOC1,631 nm
same,emission maximum,in CC#N,628 nm
same,emission maximum,in CCCCCC,626 nm
same,emission maximum,in CO,628 nm
same,emission maximum,in Cc1ccccc1,635 nm
same,emission maximum,in ClCCl,634 nm
COc1ccc2c3c(c4ccc(OC)cc4c2c1)C(C)(C)c1cc(-c2ccccc2)ccc1-3,emission maximum,in C1CCCCC1,392 nm
CCCCCCCCCCCCN1C(=O)c2ccc3c4ccc5c6c(ccc(c7ccc(c2c37)C1=O)c64)C(=O)NC5=O,emission maximum,in CN(C)C=O,535 nm
N#Cc1nc(N(Cc2ccccc2I)Cc2ccccc2I)c(C#N)nc1N(Cc1ccccc1I)Cc1ccccc1I,emission maximum,in ClC(Cl)Cl,567 nm
Cc1cccc2nc3c(=O)[nH]c(=O)[nH]c3nc12,emission maximum,in C1COCCO1,437 nm
same,emission maximum,in CC#N,449 nm
same,emission maximum,in CCO,465 nm
same,emission maximum,in CO,469 nm
same,emission maximum,in ClCCCl,450 nm
same,emission maximum,in O,495 nm
CCC12C(=C3C(=C4c5ccc(-c6ccc(C(C)=O)cc6)cc5S(=O)(=O)C41CC)C(F)(F)C(F)(F)C3(F)F)c1ccc(-c3ccc(C(C)=O)cc3)cc1S2(=O)=O (stereo unspecified),emission maximum,in C1COCCO1,561.95 nm
Cc1nc2c(ccc3c2sc(/C=C/c2ccc(N(CCO)CCO)cc2)[n+]3C)s1,emission maximum,in CO,601 nm
same,emission maximum,in ClC(Cl)Cl,603 nm
COC(=O)C(NC(=O)CCNc1cccc2ccccc12)C(C)C (stereo unspecified),emission maximum,in CCO,415 nm
CCC(C)(C)c1ccc2c(c1)C(CC)(CC)c1cc(-c3ccc(-c4ccc5c(c4)C(CC)(CC)c4cc(C(C)(C)CC)ccc4-5)cc3)ccc1-2,emission maximum,in C1CCCCC1,381 nm
O=c1c2ccc(N3CCCCC3)cc2oc2cc(N3CCCCC3)ccc12,emission maximum,in CO,448.15 nm
same,emission maximum,in ClCCl,407.47 nm
COc1ccc(-c2c3ccccc3c(-c3ccc(OC)cc3)c3cc4ccccc4cc23)cc1,emission maximum,in ClCCl,511 nm
CCCCCCC1(CCCCCC)c2cc(-c3ccc(-c4ccc(-c5ccc(-c6ccc7c(c6)C(CCCCCC)(CCCCCC)c6cc(-n8c9ccccc9c9ccccc98)ccc6-7)s5)c5nsnc45)s3)ccc2-c2ccc(-n3c4ccccc4c4ccccc43)cc21,emission maximum,in ClCCl,611 nm
[O-]c1c(-c2nc3ccccc3s2)cc2ccc3cccc4ccc1c2c34,emission maximum,in CC#N,553.72 nm
same,emission maximum,in CS(C)=O,555 nm
Cc1cc2c(o1)=CC1=Cc3cc4oc(C)cc4n3[B-](F)(F)[N+]=21,emission maximum,in ClC(Cl)Cl,583 nm
C(#Cc1ccccc1)C(C#Cc1ccccc1)=Cc1ccc(C=C(C#Cc2ccccc2)C#Cc2ccccc2)s1,emission maximum,in ClC(Cl)Cl,528 nm
CNc1cccc2c1C(=O)c1ccccc1C2=O,emission maximum,in C1CCC2CCCCC2C1,565 nm
same,emission maximum,in C1CCCCC1,563 nm
same,emission maximum,in CC1CCCCC1,565 nm
same,emission maximum,in CC#N,617 nm
same,emission maximum,in CCC(C)CC,562 nm
same,emission maximum,in CCCCCC,560 nm
same,emission maximum,in CCOC(C)=O,600 nm
c1ccc2c(c1)-c1ccccc1C21c2ccccc2-c2c1c1c3ccccc3ccc1c1ccccc21,emission maximum,in C1CCOC1,417 nm
CC(C)(C)c1cc(-c2ccc3c(-c4cc(C(C)(C)C)cc(C(C)(C)C)c4)cc4c5cc(-c6cc(C(C)(C)C)cc(C(C)(C)C)c6)ccc5c(-c5cc(C(C)(C)C)cc(C(C)(C)C)c5)cc4c3c2)cc(C(C)(C)C)c1,emission maximum,in ClCCl,401 nm
COc1ccc(/C=C/C=C/C=C/c2ccc([N+](=O)[O-])cc2)cc1,emission maximum,in C1CCOC1,611 nm
same,emission maximum,in C1COCCO1,565 nm
same,emission maximum,in CC1CCCCC1,485 nm
same,emission maximum,in CC#N,740 nm
same,emission maximum,in CO,690 nm
same,emission maximum,in CS(C)=O,744 nm
same,emission maximum,in Cc1ccccc1,541 nm
same,emission maximum,in ClC(Cl)Cl,681 nm
same,emission maximum,in ClCCl,694 nm
CN(C)c1ccc(/C=C/c2ccc3ccccc3[n+]2C)cc1,emission maximum,in CC#N,618 nm
same,emission maximum,in ClCCl,645 nm
same,emission maximum,in O,622 nm
Cc1nc2c(ccc3c2sc(/C=C/c2ccc(N(C)C)cc2)[n+]3C)s1,emission maximum,in CO,600 nm
same,emission maximum,in ClC(Cl)Cl,603 nm
N#Cc1cc(-c2ccc(N3c4ccccc4Oc4ccccc43)cc2)c(-c2ccc(N3c4ccccc4Oc4ccccc43)cc2)cc1C#N,emission maximum,in Cc1ccccc1,577 nm
same,emission maximum,in c1cc(-c2cccc(-n3c4ccccc4c4ccccc43)c2)cc(-n2c3ccccc3c3ccccc32)c1,540 nm
CCCCCCCCCCCCSc1cc2c3c(ccc4c5c(SCCCCCCCCCCCC)cc6c7c(ccc(c1c34)c75)C(=O)N(C1CCCCC1)C6=O)C(=O)N(C1CCCCC1)C2=O,emission maximum,in ClC(Cl)Cl,655 nm
CCN(CC)c1ccc2c(C)cc(=O)oc2c1,emission maximum,in C1CCCCC1,395 nm
same,emission maximum,in CC#N,430 nm
same,emission maximum,in CCCCCCCCO,443 nm
same,emission maximum,in CCCCCCO,444 nm
same,emission maximum,in CCCCO,447 nm
same,emission maximum,in CCCO,452 nm
same,emission maximum,in CCO,454 nm and 451 nm
same,emission maximum,in CCOC(C)=O,416 nm
same,emission maximum,in CO,462 nm
same,emission maximum,in O,470 nm
same,emission maximum,in OCC(O)CO,463 nm
CCCCCCc1ccc(-n2c3[n+](c4c5ccccc5c5ccccc5c42)[B-](C)(C)c2cc(-n4c5ccccc5c5ccccc54)ccc2-3)cc1,emission maximum,in C1CCOC1,409 nm
same,emission maximum,in CC#N,409 nm
same,emission maximum,in Cc1ccccc1,410 nm
same,emission maximum,in ClCCl,408 nm
CN(C)c1ccc(/C=C/c2cc[n+](C)c3ccccc23)cc1,emission maximum,in CC#N,703 nm
same,emission maximum,in ClCCl,680 nm
same,emission maximum,in O,698 nm
CC(C)(C)c1ccc(-n2c(-c3ccc(-c4cccc(-c5c(-c6ccccc6)nc6ccccn56)c4)cc3)nc3c4ccccc4c4ccccc4c32)cc1,emission maximum,in ClCCl,417 nm
O=c1c2ccccc2n(-c2ccc(-c3ccc(-n4c5ccccc5c(=O)c5ccccc54)cc3)cc2)c2ccccc12,emission maximum,in ClCCl,405 nm
F[B-]1(F)n2c(Cl)ccc2C(c2c(Cl)cccc2Cl)=C2C=CC(NCc3ccccc3)=[N+]21,emission maximum,in CC#N,532 nm
same,emission maximum,in CCCCCC,538 nm
same,emission maximum,in CCOC(C)=O,532 nm
same,emission maximum,in CO,531 nm
same,emission maximum,in ClCCl,537 nm
N#C/C(=C\c1ccc(C#N)cc1)c1nc(-c2ccc(Cl)cc2)c(-c2ccccc2)s1,emission maximum,in CC#N,522 nm
O=C1OC(=O)c2ccc(N(c3ccccc3)c3c4ccccc4cc4ccccc34)c3cccc1c23,emission maximum,in C1CCOC1,591 nm
same,emission maximum,in CCCCCC,514 nm
same,emission maximum,in ClCCl,608 nm
same,emission maximum,in c1ccccc1,560 nm
C/C=C/c1cccc(OC)c1,emission maximum,in CC#N,327 nm
same,emission maximum,in CCCCCC,325 nm
COC(=O)C(NC(=O)OC(C)(C)C)c1ccc2oc(-c3cc(OC)ccc3OC)nc2c1 (stereo unspecified),emission maximum,in CC1CCCCC1,364 nm
same,emission maximum,in CC#N,390 nm
same,emission maximum,in CO,405 nm
CN(C)c1ccc2cc3c(cc2c1)OCCN=C3,emission maximum,in C1CCOC1,425 nm
same,emission maximum,in CC#N,562 nm
same,emission maximum,in CC(C)O,447 nm
same,emission maximum,in CCOC(C)=O,426 nm
same,emission maximum,in CN(C)C=O,442 nm
same,emission maximum,in CS(C)=O,447 nm
same,emission maximum,in Cc1ccccc1,415 nm
same,emission maximum,in ClCCl,532 nm
same,emission maximum,in O,559 nm
CCOC(=O)c1c(-c2cc3ccccc3oc2=O)nn(-c2ccc(OC)cc2)c1C(=O)OCC,emission maximum,in ClCCl,457 nm
N#CC(C#N)=C(c1ccc(N(c2ccccc2)c2ccccc2)cc1)c1ccc(N(c2ccccc2)c2ccccc2)cc1,emission maximum,in C1CCCCC1,413.3 nm
same,emission maximum,in CC(C)=O,505.58 nm
same,emission maximum,in CN(C)C=O,515.24 nm
same,emission maximum,in Cc1ccccc1,439.48 nm
same,emission maximum,in ClC(Cl)Cl,491.2 nm
CCN(CC)c1ccc2c(c1)C(C)(C)C(=O)C=C2,emission maximum,in O,552 nm
CCOC(=O)c1cc(C(=O)OCC)c2cc(O)ccc2n1,emission maximum,in CCO,466 nm
N#Cc1ccc(-c2ccc3c(c2)c2cc(-c4ccc(C#N)cc4)ccc2c2c3nc(-c3ccc(N(c4ccccc4)c4ccccc4)cc3)n2-c2ccccc2)cc1,emission maximum,in C1CCOC1,449.94 nm
same,emission maximum,in CC#N,479.9 nm
same,emission maximum,in CCCCCC,419.62 nm
same,emission maximum,in CCOCC,439.6 nm
CCN(CC)c1ccc2cc(/C=C/c3ccccc3)c(=O)oc2c1,emission maximum,in CC#N,477 nm
CCN(CC)c1ccc2cc(-c3cc(SC)c(C#N)c(=O)o3)c(=O)oc2c1,emission maximum,in C1CCOC1,558 nm
same,emission maximum,in CC#N,578 nm
same,emission maximum,in CC(C)=O,573 nm
same,emission maximum,in CCOC(C)=O,554 nm
same,emission maximum,in CN(C)C=O,585 nm
same,emission maximum,in CO,582 nm
same,emission maximum,in CS(C)=O,593 nm
same,emission maximum,in Cc1ccccc1,533 nm
same,emission maximum,in ClC(Cl)Cl,547 nm
same,emission maximum,in ClCCl,560 nm
COc1cc2c(cc1-c1ccc(C(F)(F)F)cc1)Cc1c3c(c4c(c1-2)-c1cc(OC)c(-c2ccc(C(F)(F)F)cc2)cc1C4)C(=O)N(CCC(C)C)C3=O,emission maximum,in C1CCOC1,458 nm
CCOC(=O)/C(C)=C/C1=C(c2ccc(C)cc2)C2=Nc3c(-c4ccc(C)cc4)c(Br)c(-c4ccc(C)cc4)n3[B-](F)(F)[N+]2=C1c1ccc(C)cc1,emission maximum,in ClC(Cl)Cl,702 nm
O=[N+]([O-])c1ccc(/C=C/c2cn(S(=O)(=O)c3ccccc3)c3ccccc23)cc1,emission maximum,in CC#N,593 nm
same,emission maximum,in CCCCCCC,403 nm
same,emission maximum,in CO,417 nm
same,emission maximum,in O,540 nm
CN(C)c1ccc2c(c1)[Si](C)(C)C1=CC(=[N+](C)C)C=CC1=C2C#Cc1ccccc1,emission maximum,in CO,738 nm
same,emission maximum,in O,736 nm
Cc1ccc(/C2=c3\cc/c(o3)=C(\c3ccc(C)cc3)c3ccc([nH]3)-c3ccc4n3[P-](=O)(=O)[N+]3=C(C=CC3=C4c3ccc[nH]3)c3ccc2[nH]3)cc1,emission maximum,in ClC(Cl)Cl,740 nm
COc1cc(/C=C/c2nc3ccccc3o2)c(OC)cc1/C=C/c1nc(C)nc(C)n1,emission maximum,in C1CCOC1,483 nm
same,emission maximum,in CC#N,495 nm
same,emission maximum,in ClC(Cl)Cl,490 nm
same,emission maximum,in ClCCl,492 nm
C(S/C=C/c1ccc(-c2ccc(/C=C/SC=C3CCCCCC3)cc2)cc1)=C1CCCCCC1,emission maximum,in ClCCl,434 nm
CC1(C)C(/C=C/C2=C(Cl)C(=C/C=C3/N(CCCCCC(=O)O)c4ccccc4C3(C)C)/CCC2)=[N+](CCCCCC(=O)O)c2ccccc21,emission maximum,in CO,808 nm
